# Test system: production of TNF by monocytes activated with bacterial lipopolysaccharide (LPS)
# Assay: Lipopolysaccharide-activated monocyte TNF production assay
# Format: cell-based
# Details: Homo sapiens; whole blood monocyte assay (LPS induced TNF release)
# Outline: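 Adherent human PBMC-derived monocytes preincubated 60 min with nine two-fold compound dilutions, then stimulated with E. coli K532 LPS (30 ng/mL in the added medium) for 4 h at 37 °C. Supernatant TNF measured by sandwich ELISA; IC50 is the compound concentration halving TNF production, from second-order polynomial fits.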
row,Compound,IC50 [µM]
1,"CC[C@@H](C)Nc1nncc2cc(-c3c(C)ccc4c(NC)noc34)ccc12 [Example 366, 6-[6-methyl-3-(methylamino)-1,2-benzisoxazol-7-yl]-N-[(1R)-1-methylpropyl]phthalazin-1-amine]",≤ 5
2,"Cc1ccc2c(N)nsc2c1-c1ccc2c(N3CCOC[C@@H]3C)nncc2c1 [Example 367, 6-methyl-7-{1-[(3S)-3-methylmorpholin-4-yl]phthalazin-6-yl}-1,2-benzisothiazol-3-amine]",≤ 5
3,"Cc1ccc(C(N)=O)cc1-c1ccc2c(N3C[C@H](C)N(CC(F)(F)F)C[C@H]3C)nncc2c1 [Example 368, 3-{1-[(2R,5S)-2,5-dimethyl-4-(2,2,2-trifluoroethyl)piperazin-1-yl]phthalazin-6-yl}-4-methylbenzamide]",≤ 5
4,"Cc1ccc(C(=O)NC2CC2)cc1-c1ccc2c(NC(C)c3ccccn3)nncc2c1 (stereo not drawn) [Example 369, N-cyclopropyl-4-methyl-3-{1-[(1-pyridin-2-ylethyl)amino]phthalazin-6-yl}benzamide]",≤ 5
5,"Cc1ccc2c(NC3CC3)noc2c1-c1ccc2c(NC(C)C)nncc2c1 [Example 370, 6-[3-(cyclopropylamino)-6-methyl-1,2-benzisoxazol-7-yl]-N-isopropylphthalazin-1-amine]",≤ 5
6,"CC(=O)N1CCN(c2nncc3cc(-c4cc(C(=O)NC5CC5)ccc4C)ccc23)[C@@H](C)C1 [Example 371, 3-{1-[(2S)-4-acetyl-2-methylpiperazin-1-yl]phthalazin-6-yl}-N-cyclopropyl-4-methylbenzamide]",≤ 5
7,"CNc1noc2c(-c3ccc4c(NC(C)C)nncc4c3)c(C)ccc12 [Example 372, N-isopropyl-6-[6-methyl-3-(methylamino)-1,2-benzisoxazol-7-yl]phthalazin-1-amine]",≤ 5
8,"CNc1noc2c(-c3ccc4c(N5CCOC[C@H]5C)nncc4c3)c(C)ccc12 [Example 373, N,6-dimethyl-7-{1-[(3R)-3-methylmorpholin-4-yl]phthalazin-6-yl}-1,2-benzisoxazol-3-amine]",≤ 5
9,"Cc1ccccc1-c1nncc2cc(-c3c(C)ccc4c(NC5CC5)noc34)ccc12 [Example 374, N-cyclopropyl-6-methyl-7-[1-(2-methylphenyl)phthalazin-6-yl]-1,2-benzisoxazol-3-amine]",≤ 5
10,"COc1ncccc1-c1ccc2c(-c3cccnc3OC)nncc2c1 [Example 375, 1,6-bis(2-methoxypyridin-3-yl)phthalazine]",≤ 5
11,"Cc1ccc(C(=O)NC2CC2)cc1-c1ccc2c(N3C[C@H](C)N(CC(F)(F)F)C[C@H]3C)nncc2c1 [Example 376, N-cyclopropyl-3-{1-[(2R,5S)-2,5-dimethyl-4-(2,2,2-trifluoroethyl)piperazin-1-yl]phthalazin-6-yl}-4-methylbenzamide]",≤ 5
12,"Cc1cc(F)ccc1-c1nncc2cc(-c3c(C)ccc4c(NC5CC5)noc34)ccc12 [Example 377, N-cyclopropyl-7-[1-(4-fluoro-2-methylphenyl)phthalazin-6-yl]-6-methyl-1,2-benzisoxazol-3-amine]",≤ 5
13,"Cc1ccccc1-c1nncc2cc(-c3c(C)ccc(C(=N)NC4CC4)c3O)ccc12 [Example 378, N-cyclopropyl-2-hydroxy-4-methyl-3-[1-(2-methylphenyl)phthalazin-6-yl]benzenecarboximidamide]",≤ 5
14,"CCOC(=O)N1CCN(c2nncc3cc(-c4cc(C(=O)NC5CC5)ccc4C)ccc23)[C@@H](C)C1 [Example 379, ethyl(3S)-4-(6-{5-[(cyclopropylamino)carbonyl]-2-methylphenyl}phthalazin-1-yl)-3-methylpiperazine-1-carboxylate]",≤ 5
15,"Cc1cc(NC(=O)c2ccc(C)c(-c3ccc4c(N5CCOCC5)nncc4c3)c2)no1 [Example 380, 4-methyl-N-(5-methylisoxazol-3-yl)-3-(1-morpholin-4-ylphthalazin-6-yl)benzamide]",≤ 5
16,"Cc1ccc2c(NC(C)(C)C)noc2c1-c1ccc2c(N3CCOC[C@@H]3C)nncc2c1 [Example 381, N-(tert-butyl)-6-methyl-7-{1-[(3S)-3-methylmorpholin-4-yl]phthalazin-6-yl}-1,2-benzisoxazol-3-amine]",≤ 5
17,"Cc1cc(F)ccc1-c1nncc2cc(-c3ccc(Cl)c4c(NC5CC5)noc34)ccc12 [Example 382, 4-chloro-N-cyclopropyl-7-[1-(4-fluoro-2-methylphenyl)phthalazin-6-yl]-1,2-benzisoxazol-3-amine]",≤ 5
18,"CC(=O)N1CCN(c2nncc3cc(-c4cc(C(N)=O)ccc4C)ccc23)[C@@H](C)C1 [Example 383, 3-{1-[(2S)-4-acetyl-2-methylpiperazin-1-yl]phthalazin-6-yl}-4-methylbenzamide]",≤ 5
19,"CCNc1noc2c(-c3ccc4c(N5CCOC[C@@H]5C)nncc4c3)c(C)ccc12 [Example 384, N-ethyl-6-methyl-7-{1-[(3S)-3-methylmorpholin-4-yl]phthalazin-6-yl}-1,2-benzisoxazol-3-amine]",≤ 5
20,"Cc1ccc2c(N)noc2c1-c1ccc2c(NC(C)C)nncc2c1 [Example 385, 6-(3-amino-6-methyl-1,2-benzisoxazol-7-yl)-N-isopropylphthalazin-1-amine]",≤ 5

row,Compound,IC50 [µM]
1,"Cc1ccccc1-c1ccc2c(-c3ccccc3C)nncc2c1 [Example 386, 1,6-bis(2-methylphenyl)phthalazine]",≤ 5
2,"Cc1ccc2c(N)noc2c1-c1ccc2c(N3CCOC[C@@H]3C)nncc2c1 [Example 387, 6-methyl-7-{1-[(3S)-3-methylmorpholin-4-yl]phthalazin-6-yl}-1,2-benzisoxazol-3-amine]",≤ 5
3,"Cc1ccc2c(NC3CC3)noc2c1-c1ccc2c(N3CCOCC3)nncc2c1 [Example 388, N-cyclopropyl-6-methyl-7-(1-morpholin-4-ylphthalazin-6-yl)-1,2-benzisoxazol-3-amine]",≤ 5
4,"CCNc1noc2c(-c3ccc4c(NC(C)C)nncc4c3)c(C)ccc12 [Example 389, 6-[3-(ethylamino)-6-methyl-1,2-benzisoxazol-7-yl]-N-isopropylphthalazin-1-amine]",≤ 5
5,"CC(=O)N1CCN(c2nncc3cc(-c4c(C)ccc5c(NC6CC6)noc45)ccc23)[C@@H](C)C1 [Example 390, 7-{1-[(2S)-4-acetyl-2-methylpiperazin-1-yl]phthalazin-6-yl}-N-cyclopropyl-6-methyl-1,2-benzisoxazol-3-amine]",≤ 5
6,"Cc1ccc2c(N)n[nH]c2c1-c1ccc2c(N3CCOC[C@@H]3C)nncc2c1 [Example 391, 6-methyl-7-{1-[(3S)-3-methylmorpholin-4-yl]phthalazin-6-yl}-1H-indazol-3-amine]",≤ 5
7,"Cc1ccc(C(=O)NC2CC2)cc1-c1ccc2c(N3C[C@@H](C)N(CC(F)(F)F)C[C@@H]3C)nncc2c1 [Example 393, N-cyclopropyl-3-{1-[(2S,5R)-2,5-dimethyl-4-(2,2,2-trifluoroethyl)piperazin-1-yl]phthalazin-6-yl}-4-methylbenzamide]",≤ 5
8,"Cc1ccc(C(N)=O)cc1-c1ccc2c(N3[C@H](C)CC[C@H]3C)nncc2c1 [Example 394, 3-{1-[(2R,5R)-2,5-dimethylpyrrolidin-1-yl]phthalazin-6-yl}-4-methylbenzamide]",≤ 5
9,"Cc1ccc(C(=O)NC2CC2)cc1-c1ccc2c(N3[C@H](C)CC[C@H]3C)nncc2c1 [Example 395, N-cyclopropyl-3-{1-[(2R,5R)-2,5-dimethylpyrrolidin-1-yl]phthalazin-6-yl}-4-methylbenzamide]",≤ 5
10,"CNc1noc2c(-c3ccc4c(-c5ccccc5C)nncc4c3)c(C)ccc12 [Example 396, N,6-dimethyl-7-[1-(2-methylphenyl)phthalazin-6-yl]-1,2-benzisoxazol-3-amine]",≤ 5
11,"CNc1noc2c(-c3ccc4c(N5CCOC[C@@H]5C)nncc4c3)c(C)ccc12 [Example 397, N,6-dimethyl-7-(1-((S)-3-methylmorpholino)phthalazin-6-yl)benzo[d]isoxazol-3-amine]",≤ 5
12,"Cc1ccccc1-c1ccc2c(N3CCOCC3c3ccc(F)cc3)nncc2c1 (stereo not drawn) [Example 398, 1-[3-(4-fluorophenyl)morpholin-4-yl]-6-(2-methylphenyl)phthalazine]",≤ 5
13,"CNc1noc2c(-c3ccc4c(N[C@@H](C)COC)nncc4c3)c(C)ccc12 [Example 399, N-[(1S)-2-methoxy-1-methylethyl]-6-[6-methyl-3-(methylamino)-1,2-benzisoxazol-7-yl]phthalazin-1-amine]",≤ 5
14,"C[C@H]1COCCN1c1nncc2cc(-c3c(Cl)ccc4c(NCC(F)(F)F)noc34)ccc12 [Example 400, 6-chloro-7-{1-[(3S)-3-methylmorpholin-4-yl]phthalazin-6-yl}-N-(2,2,2-trifluoroethyl)-1,2-benzisoxazol-3-amine]",≤ 5
15,"C[C@H]1COCCN1c1nncc2cc(-c3c(Cl)ccc4c(NC5CC5)noc34)ccc12 [Example 401, 6-chloro-N-cyclopropyl-7-{1-[(3S)-3-methylmorpholin-4-yl]phthalazin-6-yl}-1,2-benzisoxazol-3-amine]",≤ 5
16,"CC(C)Nc1noc2c(-c3ccc4c(N5CCOC[C@@H]5C)nncc4c3)c(Cl)ccc12 [Example 402, 6-chloro-N-isopropyl-7-{1-[(3S)-3-methylmorpholin-4-yl]phthalazin-6-yl}-1,2-benzisoxazol-3-amine]",≤ 5
17,"CC(=O)Nc1noc2c(-c3ccc4c(N5CCOC[C@@H]5C)nncc4c3)c(C)ccc12 [Example 403, N-(6-methyl-7-{1-[(3S)-3-methylmorpholin-4-yl]phthalazin-6-yl}-1,2-benzisoxazol-3-yl)acetamide]",≤ 5
18,"Cc1ccc(C(=O)NC(C)C)cc1-c1ccc2c(NC(C)C)nncc2c1 [Example 404, N-isopropyl-3-[1-(isopropylamino)phthalazin-6-yl]-4-methylbenzamide]",≤ 5
19,"Cc1ccc(C(=O)NC(C)C)cc1-c1ccc2c(N3CCOCC3)nncc2c1 [Example 405, N-isopropyl-4-methyl-3-(1-morpholin-4-ylphthalazin-6-yl)benzamide]",≤ 5
